According to US4373094A, “Anthracycline derivatives” (Sanraku-Ocean Co., Ltd., priority 1980, dated 1983):
Values after ≈ are worked out from the molar mass of the structure shown.

Legend:
[1] = test system: mouse leukemia L1210 cells; assay: Growth inhibition of cultured mouse leukemia L1210 cells (living cells counted); type: cell-based; conditions: for IC50: Mus musculus, L1210, L1210 cells, read-out: 50% Inhibitory concentration, Growth inhibition after 24 hours; for antitumor effect on L1210 leukemia cells: in words
Experimental: The L1210 cells were cultivated at 37° C. overnight and transferred to RPMI (Roswell Park Memorial Institute) 1640 medium containing 20% calf serum at their exponential growth phase so as to give a cell concentration of 4×10^4 cells/ml. The compounds of the present invention were added to the medium at a concentration of 0.02-0.5 μg/ml. […]
(§1) Independently of the above-mentioned experiment, the compounds of the present invention were added to an about 5×10^5 cells/ml L1210 cell suspension in RPMI 1640 medium containing 10% calf serum at a concentration of 0.02-2.5 μg/ml. After 15 minutes, ^14 C-uridine (0.05 μCi/ml) or ^14 C-thymidine (0.05 μCi/ml) was added to the suspension and pulse-labeling was carried out at 37° C. for 60 minutes. The reaction was stopped by addition of a cold 10% trichloroacetic acid solution and an acid-insoluble fraction was precipitated. The precipitate was washed with a cold 5% trichloroacetic acid and the radioactivity was measured.

L1210 cells [2] = assay: Inhibition of RNA synthesis (14C-uridine incorporation) in L1210 cells; type: cell-based, mouse; conditions: RPMI 1640 medium containing 10% calf serum, pulse-labeling 37° C. for 60 minutes; for IC50: Mus musculus, L1210, 1 h, read-out: 50% Inhibitory concentration, 14C-Uridine (Inhibition of RNA synthesis)
Experimental: as §1

Solubility in solvents = type: physicochemical; conditions: for Solubilities: slightly soluble: slightly soluble solvents; for Solubilities: soluble: soluble solvents
L1210 cells [3] = assay: Inhibition of DNA synthesis (14C-thymidine incorporation) in L1210 cells; type: cell-based, mouse; conditions: RPMI 1640 medium containing 10% calf serum, pulse-labeling 37° C. for 60 minutes; for IC50: Mus musculus, 1 h, read-out: 50% Inhibitory concentration, 14C-Thymidine (Inhibition of DNA synthesis)
Experimental: as §1

[4] = RPMI 1640 medium containing 20% calf serum, 37° C., head: after 24 hours (text: 3 days)

## CCC1(O)CC(OC2CC(N(C)C)C(OC3CC(O)C(O)C(C)O3)C(C)O2)c2c(cc3c(c2O)C(=O)c2c(O)cc(O)cc2C3=O)C1C(=O)OC (stereo not shown) [2-hydroxy-aclacinomycin S]
[1]; [4]
  IC50: 0.7 µg/mL (≈ 0.978 µM)
[1]
  antitumor effect on L1210 leukemia cells: have an antitumor effect on L1210 leukemia cells
L1210 cells [2]
  IC50: 1.3 µg/mL (≈ 1.82 µM)
Solubility in solvents
  Solubilities: slightly soluble: slightly soluble in water, ether and n-hexane
  Solubilities: soluble: soluble in acidic water, methanol, ethanol, n-butanol, acetone, ethyl acetate, chloroform, benzene, toluene, dimethylsulfoxide and methyl cellosolve

## CCC1(O)CC(OC2CC(N(C)C)C(O)C(C)O2)c2c(cc3c(c2O)C(=O)c2c(O)cc(O)cc2C3=O)C1C(=O)OC (stereo not shown) [2-hydroxy-aclacinomycin T]
[1]; [4]
  IC50: 0.46 µg/mL (≈ 0.786 µM)
[1]
  antitumor effect on L1210 leukemia cells: have an antitumor effect on L1210 leukemia cells
L1210 cells [2]
  IC50: 1 µg/mL (≈ 1.71 µM)
Solubility in solvents
  Solubilities: slightly soluble: slightly soluble in water, ether and n-hexane
  Solubilities: soluble: soluble in acidic water, methanol, ethanol, n-butanol, acetone, ethyl acetate, chloroform, benzene, toluene, dimethylsulfoxide and methyl cellosolve

## CCC1(O)CC(OC2CC(N(C)C)C(OC3CC(O)C(OC4CCC(O)C(C)O4)C(C)O3)C(C)O2)c2c(cc3c(c2O)C(=O)c2c(O)cc(O)cc2C3=O)C1C(=O)OC (stereo not shown) [2-hydroxy-aclacinomycin M]
[1]; [4]
  IC50: 0.08 µg/mL (≈ 0.0964 µM)
[1]
  antitumor effect on L1210 leukemia cells: have an antitumor effect on L1210 leukemia cells
L1210 cells [3]
  IC50: 1.2 µg/mL (≈ 1.45 µM)
L1210 cells [2]
  IC50: 0.1 µg/mL (≈ 0.12 µM)
Solubility in solvents
  Solubilities: slightly soluble: slightly soluble in water, ether and n-hexane
  Solubilities: soluble: soluble in acidic water, methanol, ethanol, n-butanol, acetone, ethyl acetate, chloroform, benzene, toluene, dimethylsulfoxide and methyl cellosolve

## CCC1(O)CC(OC2CC(N(C)C)C(OC3CC(O)C(OC4CCC(=O)C(C)O4)C(C)O3)C(C)O2)c2c(cc3c(c2O)C(=O)c2c(O)cc(O)cc2C3=O)C1C(=O)OC (stereo not shown) [2-hydroxy-aclacinomycin A, reference compound]
[1]; [4]
  IC50: 0.15 µg/mL (≈ 0.181 µM)
L1210 cells [3]
  IC50: 0.9 µg/mL (≈ 1.09 µM)
L1210 cells [2]
  IC50: 0.14 µg/mL (≈ 0.169 µM)

## CCC1(O)CC(OC2CC(N(C)C)C(OC3CC(O)C(OC4CCC(O)C(C)O4)C(C)O3)C(C)O2)c2c(cc3c(c2O)C(=O)c2c(O)cc(O)cc2C3=O)C1C(=O)OC (stereo not shown) [2-hydroxy-aclacinomycin N]
[1]; L1210 cells, RPMI 1640 medium containing 20% calf serum, 37° C., head: after 24 hours (text: 3 days)
  50% Inhibitory concentration, Growth inhibition after 24 hours: 0.095 µg/mL
[1]
  antitumor effect on L1210 leukemia cells: have an antitumor effect on L1210 leukemia cells
L1210 cells [3]
  50% Inhibitory concentration, 14C-Thymidine (Inhibition of DNA synthesis): 1.2 µg/mL
L1210 cells [2]
  50% Inhibitory concentration, 14C-Uridine (Inhibition of RNA synthesis): 0.18 µg/mL
Solubility in solvents
  Solubilities: slightly soluble: slightly soluble in water, ether and n-hexane
  Solubilities: soluble: soluble in acidic water, methanol, ethanol, n-butanol, acetone, ethyl acetate, chloroform, benzene, toluene, dimethylsulfoxide and methyl cellosolve
